Earlier results on 1 compound are cited in patent publication US20130039957A1, “CONTROLLED RELEASE PHARMACEUTICAL COMPOSITIONS OF BRIVARACETAM” (LUPIN LIMITED, priority 2010, published 2013).

Converted amounts (≈) assume the structure as drawn.

For data set [1] the following is noted: healthy subjects.
Data set [2] addresses synaptic vesicle protein 2A (SV2A) (Homo sapiens, UniProt Q7L0J3). To be noted: preclinical studies.
Data set [3] relates to neuronal voltage-dependent sodium channels. To be noted: preclinical studies.

synaptic vesicle protein 2A (SV2A), sequence (Q7L0J3 whole entry, species assumed): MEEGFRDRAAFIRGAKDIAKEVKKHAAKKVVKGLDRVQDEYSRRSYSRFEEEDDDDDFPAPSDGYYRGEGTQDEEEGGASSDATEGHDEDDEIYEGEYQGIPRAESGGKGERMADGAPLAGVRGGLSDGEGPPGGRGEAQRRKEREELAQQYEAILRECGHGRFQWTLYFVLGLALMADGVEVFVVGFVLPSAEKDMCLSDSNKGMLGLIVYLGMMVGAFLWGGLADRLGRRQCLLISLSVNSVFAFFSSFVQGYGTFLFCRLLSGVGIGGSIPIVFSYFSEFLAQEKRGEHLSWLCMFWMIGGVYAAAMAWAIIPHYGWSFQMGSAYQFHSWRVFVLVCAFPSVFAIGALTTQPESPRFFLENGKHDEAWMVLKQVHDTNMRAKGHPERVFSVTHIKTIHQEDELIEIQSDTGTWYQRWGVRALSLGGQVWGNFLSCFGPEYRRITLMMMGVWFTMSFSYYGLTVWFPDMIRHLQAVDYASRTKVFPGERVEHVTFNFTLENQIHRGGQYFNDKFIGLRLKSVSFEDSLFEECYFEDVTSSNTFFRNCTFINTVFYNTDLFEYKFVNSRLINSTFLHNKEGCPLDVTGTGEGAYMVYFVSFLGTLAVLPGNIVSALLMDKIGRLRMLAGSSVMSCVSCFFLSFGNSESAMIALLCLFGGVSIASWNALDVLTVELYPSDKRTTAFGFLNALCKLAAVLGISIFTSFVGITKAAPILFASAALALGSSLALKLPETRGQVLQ

Turning to `CCC[C@@H]1CC(=O)N([C@@H](CC)C(N)=O)C1` [Brivaracetam], the water solubility was 700 mg/mL (≈ 3300 mM). Moreover, the half life in data set [1] is 7.6 ± 1.7 h. Moreover, in data set [2], the “affinity for synaptic vesicle protein 2A (SV2A)” value was “showed affinity”. Also, the “inhibitory activity at neuronal voltage-dependent sodium channels” value in data set [3] was “has inhibitory activity”.
